The results in this text go back to ChEMBL document CHEMBL1158670, “Mediation of the cytotoxicity of lanostanoids and steroids of Ganoderma tsugae through apoptosis and cell cycle” (J Nat Prod, 1998).

≈ marks a conversion by molar mass, not a printed value. Calls of active or inactive are those of the source. No cut-off for these calls is given here.

The nature of assay [1]: Cell cycle arrest in human Hep3B cells by accumulation at subG1 phase at 24 ug/mL after 24 hrs by flow cytometry. It counts as functional, cell-based. The note with it: Hep 3B2. A general note: Flow cytometry measures light scatter and fluorescence of single cells or particles in a stream.
The nature of assay [2]: Cell cycle arrest in human Hep3B cells by accumulation at G2/M phase at 100 ug/mL after 24 hrs by flow cytometry. It counts as functional, cell-based. The note with it: Hep 3B2.
Assay [3] can be described thus: Cell cycle arrest in human Hep3B cells by accumulation at G2/M phase at 50 ug/mL after 24 hrs by flow cytometry. It counts as functional, cell-based. The note with it: Hep 3B2.
A short description of assay [4]: Cell cycle arrest in human Hep3B cells by accumulation at G2/M phase after 24 hrs by flow cytometry. It counts as functional, cell-based, Hep 3B2.
The nature of assay [5]: Cell cycle arrest in human Hep3B cells by accumulation at S phase at 35 ug/mL after 24 hrs by flow cytometry. It counts as functional, cell-based. The note with it: Hep 3B2.
Assay [6] in a line: Cell cycle arrest in human Hep3B cells by accumulation at S phase at 20 ug/mL after 24 hrs by flow cytometry. The assay is classed as functional, cell-based. The settings on record: Hep 3B2.
A short description of assay [7]: Cell cycle arrest in human Hep3B cells by accumulation at G0/G1 phase at 100 ug/mL after 24 hrs by flow cytometry. The assay is classed as functional, cell-based. The settings on record: Hep 3B2.
A short description of assay [8]: Cell cycle arrest in human Hep3B cells by accumulation at G2/M phase at 20 ug/mL after 24 hrs by flow cytometry. It counts as functional, cell-based. The note with it: Hep 3B2.
Assay [9] in a line: Cell cycle arrest in human Hep3B cells by accumulation at G0/G1 phase at 50 ug/mL after 24 hrs by flow cytometry. The assay is classed as functional, cell-based. The settings on record: Hep 3B2.
Assay [10] is described as follows: Cell cycle arrest in human Hep3B cells by accumulation at G2/M phase at 35 ug/mL after 24 hrs by flow cytometry. The assay is classed as functional, cell-based. The note with it: Hep 3B2.
A short description of assay [11]: Cell cycle arrest in human Hep3B cells by accumulation at S phase at 50 ug/mL after 24 hrs by flow cytometry. The settings on record: Hep 3B2. The assay is classed as functional, cell-based.
The nature of assay [12]: Cell cycle arrest in human Hep3B cells by accumulation at G0/G1 phase at 20 ug/mL after 24 hrs by flow cytometry. It counts as functional, cell-based. The note with it: Hep 3B2.
Assay [13] in a line: Cell cycle arrest in human Hep3B cells by accumulation at G0/G1 phase at 35 ug/mL after 24 hrs by flow cytometry. The note with it: Hep 3B2. It counts as functional, cell-based.
Assay [14] in a line: Cell cycle arrest in human Hep3B cells by accumulation at S phase at 100 ug/mL after 24 hrs by flow cytometry. The assay is classed as functional, cell-based. The settings on record: Hep 3B2.

For the molecule `CC(=O)O[C@@H]1CC[C@]2(C)C3=C(CC[C@H]2C1(C)C)[C@]1(C)CC[C@H]([C@@H](CCC=C(C)C)C(=O)O[C@@H]2O[C@H](CO)[C@@H](O)[C@H](O)[C@H]2O)[C@@]1(C)CC3`, the outcome in assay [1] was Active.

The IC50 is the midpoint of a concentration-inhibition curve. Take `CC(C)[C@@H](C)/C=C/[C@@H](C)[C@H]1CC[C@H]2C3=CC[C@H]4C[C@H](O)[C@@H](O)C[C@]4(C)[C@@]3(O)CC[C@]12C`: the Activity in [2] is 5.2%; in assay [3], 9.2%; in assay [5], 35%; in [6], 36.8%; in [7], 57.8%; in assay [8], 12.6%. For the same molecule, the Activity in assay [9] turned out to be 55.3%; in assay [10] it was 9.8%; in [11], 35.5%; in [12], 50.6%; in assay [13], 55.3%; in assay [14], 37%. Besides, the IC50 in [4] amounted to 87.1 µg/mL (≈ 202 µM).
